Values of other authors in patent US20040157836A1, “Sulfonamides having antiangiogenic and anticancer activity” (priority 2002, published 2004).

Target: type 2-methionine aminopeptidase (MetAP-2) (Homo sapiens, UniProt P50579)
Conditions: reported in Proc. Natl. Acad. Sci. USA 94: 6099-6103 (1997) and Chemistry and Biology, 4(6): 461-471 (1997)

Chain of type 2-methionine aminopeptidase (MetAP-2) (P50579 whole entry, species assumed): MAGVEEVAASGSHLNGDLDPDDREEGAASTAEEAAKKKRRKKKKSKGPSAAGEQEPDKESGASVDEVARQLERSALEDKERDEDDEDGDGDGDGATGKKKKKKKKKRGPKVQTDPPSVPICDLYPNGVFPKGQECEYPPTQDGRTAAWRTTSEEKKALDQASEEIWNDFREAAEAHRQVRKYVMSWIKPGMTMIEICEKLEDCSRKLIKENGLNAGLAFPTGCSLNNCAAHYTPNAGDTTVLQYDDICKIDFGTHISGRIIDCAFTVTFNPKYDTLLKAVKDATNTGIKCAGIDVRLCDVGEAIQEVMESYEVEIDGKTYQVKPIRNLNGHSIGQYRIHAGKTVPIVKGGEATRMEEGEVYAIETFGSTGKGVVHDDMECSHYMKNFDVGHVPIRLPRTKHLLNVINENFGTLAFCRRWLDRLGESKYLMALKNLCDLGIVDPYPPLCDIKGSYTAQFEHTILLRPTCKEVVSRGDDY

Compound: CO[C@@H]1[C@H](OC(=O)NC(=O)CCl)CC[C@]2(CO2)[C@H]1[C@@]1(C)O[C@@H]1CC=C(C)C [AGM-1470]
- bind to type 2-methionine aminopeptidase (MetAP-2): bind
